Results taken from patent US20240190880A1 (THE REGENTS OF THE UNIVERSITY OF MICHIGAN, priority 2021, published 2024).

Each molecule was assayed against T1, ER (Homo sapiens, UniProt P03372) (assay: ER degradation activity, in-cell western blot analysis in T47D cells). Conditions: 16 hours, Table A does not say which cell line (T47D or MCF7), read-out: Potency (DC50).
T1 construct: host or cells: T47D and MCF7 human breast cancer cells
T1 sequence (P03372 1-595): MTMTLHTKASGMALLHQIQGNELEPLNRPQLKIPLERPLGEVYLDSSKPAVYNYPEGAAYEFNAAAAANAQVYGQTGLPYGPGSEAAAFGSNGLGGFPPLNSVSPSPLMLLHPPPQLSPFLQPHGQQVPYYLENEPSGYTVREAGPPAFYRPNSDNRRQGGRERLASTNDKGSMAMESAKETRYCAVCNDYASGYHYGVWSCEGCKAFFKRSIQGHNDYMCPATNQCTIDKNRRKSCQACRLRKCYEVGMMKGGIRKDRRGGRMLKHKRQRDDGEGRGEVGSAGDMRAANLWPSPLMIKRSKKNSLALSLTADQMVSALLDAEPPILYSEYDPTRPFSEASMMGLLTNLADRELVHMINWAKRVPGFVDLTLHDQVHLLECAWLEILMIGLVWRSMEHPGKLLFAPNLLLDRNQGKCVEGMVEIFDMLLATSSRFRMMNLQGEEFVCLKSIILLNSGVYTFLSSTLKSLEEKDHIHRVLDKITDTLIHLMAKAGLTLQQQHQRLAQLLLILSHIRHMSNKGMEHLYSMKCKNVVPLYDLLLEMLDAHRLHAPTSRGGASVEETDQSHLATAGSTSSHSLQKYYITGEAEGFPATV
Assay type: cell-based
In short: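 T47D cells cultured in DMEM with 10% FBS, treated with compounds (final 0.5% DMSO) for 16 h. ER level measured by in-cell western with anti-rabbit-680/anti-mouse-800 near-infrared detection. Relative ER percentage calculated against untreated and DMSO-treated wells set as 100%.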

| SMILES | DC50 [nM] |
| --- | --- |
| C[C@@H]1Cc2c([nH]c3ccccc23)[C@@H](c2cnc(N3CCC4(CC3)CN(C(=O)CN3Cc5cc6c(cc5C3)C(=O)N(C3CCC(=O)NC3=O)C6=O)C4)nc2)N1CC(F)(F)F (stereo partly drawn) [E 255, 2-(2,6-dioxopiperidin-3-yl)-6-(2-(7-(5-((1R,3R)-3-methyl-2-(2,2,2-trifluoroethyl)-2,3,4,9-tetrahydro-1H-pyrido[3,4-b]indol-1-yl)pyrimidin-2-yl)-2,7-diazaspiro[3.5]nonan-2-yl)-2-oxoethyl)-6,7-dihydropyrrolo[3,4-f]isoindole-1,3(2H,5H)-dione] | < 10 |
| C[C@@H]1Cc2c([nH]c3ccccc23)[C@@H](c2cnc(N3CCC(CN4CCC(N5Cc6cc7c(cc6C5)C(=O)N(C5CCC(=O)NC5=O)C7=O)CC4)CC3)nc2)N1CC(F)(F)F (stereo partly drawn) [E 256, 2-(2,6-dioxopiperidin-3-yl)-6-(1-((1-(5-((1R,3R)-3-methyl-2-(2,2,2-trifluoroethyl)-2,3,4,9-tetrahydro-1H-pyrido[3,4-b]indol-1-yl)pyrimidin-2-yl)piperidin-4-yl)methyl)piperidin-4-yl)-6,7-dihydropyrrolo[3,4-f]isoindole-1,3(2H,5H)-dione] | 10 to 100 |
| C[C@@H]1Cc2c([nH]c3ccccc23)[C@@H](c2cnc(N3CCC(C(=O)N4CCC(N5Cc6cc7c(cc6C5)C(=O)N(C5CCC(=O)NC5=O)C7=O)CC4)CC3)nc2)N1CC(F)(F)F (stereo partly drawn) [E 257, 2-(2,6-dioxopiperidin-3-yl)-6-(1-(1-(5-((1R,3R)-3-methyl-2-(2,2,2-trifluoroethyl)-2,3,4,9-tetrahydro-1H-pyrido[3,4-b]indol-1-yl)pyrimidin-2-yl)piperidine-4-carbonyl)piperidin-4-yl)-6,7-dihydropyrrolo[3,4-f]isoindole-1,3(2H,5H)-dione] | < 10 |
| C[C@@H]1Cc2c([nH]c3ccccc23)[C@@H](c2cnc(N3CCC4(CCN(C(=O)CN5Cc6cc7c(cc6C5)C(=O)N(C5CCC(=O)NC5=O)C7=O)CC4)CC3)nc2)N1CC(F)F (stereo partly drawn) [E 258, 6-(2-(9-(5-((1R,3R)-2-(2,2-difluoroethyl)-3-methyl-2,3,4,9-tetrahydro-1H-pyrido[3,4-b]indol-1-yl)pyrimidin-2-yl)-3,9-diazaspiro[5.5]undecan-3-yl)-2-oxoethyl)-2-(2,6-dioxopiperidin-3-yl)-6,7-dihydropyrrolo[3,4-f]isoindole-1,3(2H,5H)-dione] | < 10 |
| C[C@@H]1Cc2c([nH]c3ccccc23)[C@@H](c2cnc(N3CCC4(CC3)CN(C(=O)CN3Cc5cc6c(cc5C3)C(=O)N(C3CCC(=O)NC3=O)C6=O)C4)nc2)N1CC(F)F (stereo partly drawn) [E 259, 6-(2-(7-(5-((1R,3R)-2-(2,2-difluoroethyl)-3-methyl-2,3,4,9-tetrahydro-1H-pyrido[3,4-b]indol-1-yl)pyrimidin-2-yl)-2,7-diazaspiro[3.5]nonan-2-yl)-2-oxoethyl)-2-(2,6-dioxopiperidin-3-yl)-6,7-dihydropyrrolo[3,4-f]isoindole-1,3(2H,5H)-dione] | < 10 |
| C[C@@H]1Cc2c([nH]c3ccccc23)[C@@H](c2cnc(N3CCC(C(=O)N4CCC(N5Cc6cc7c(cc6C5)C(=O)N(C5CCC(=O)NC5=O)C7=O)CC4)CC3)nc2)N1CC(F)F (stereo partly drawn) [E 260, 6-(1-(1-(5-((1R,3R)-2-(2,2-difluoroethyl)-3-methyl-2,3,4,9-tetrahydro-1H-pyrido[3,4-b]indol-1-yl)pyrimidin-2-yl)piperidine-4-carbonyl)piperidin-4-yl)-2-(2,6-dioxopiperidin-3-yl)-6,7-dihydropyrrolo[3,4-f]isoindole-1,3(2H,5H)-dione] | < 10 |
| C[C@@H]1Cc2c([nH]c3ccccc23)[C@@H](c2cnc(N3CCC(CN4CCC(N5Cc6cc7c(cc6C5)C(=O)N(C5CCC(=O)NC5=O)C7=O)CC4)CC3)nc2)N1CC(F)F (stereo partly drawn) [E 261, 6-(1-((1-(5-((1R,3R)-2-(2,2-difluoroethyl)-3-methyl-2,3,4,9-tetrahydro-1H-pyrido[3,4-b]indol-1-yl)pyrimidin-2-yl)piperidin-4-yl)methyl)piperidin-4-yl)-2-(2,6-dioxopiperidin-3-yl)-6,7-dihydropyrrolo[3,4-f]isoindole-1,3(2H,5H)-dione] | 10 to 100 |
| C[C@@H]1Cc2c([nH]c3ccccc23)[C@@H](c2ccc(N3CCC4(CC3)CN(C(=O)CN3Cc5cc6c(cc5C3)C(=O)N(C3CCC(=O)NC3=O)C6=O)C4)cc2)N1CC(F)F (stereo partly drawn) [E 262, 6-(2-(7-(4-((1R,3R)-2-(2,2-difluoroethyl)-3-methyl-2,3,4,9-tetrahydro-1H-pyrido[3,4-b]indol-1-yl)phenyl)-2,7-diazaspiro[3.5]nonan-2-yl)-2-oxoethyl)-2-(2,6-dioxopiperidin-3-yl)-6,7-dihydropyrrolo[3,4-f]isoindole-1,3(2H,5H)-dione] | 10 to 100 |
| C[C@@H]1Cc2c([nH]c3ccccc23)[C@@H](c2ccc(N3CCC(C(=O)N4CCC(N5Cc6cc7c(cc6C5)C(=O)N(C5CCC(=O)NC5=O)C7=O)CC4)CC3)cc2)N1CC(F)F (stereo partly drawn) [E 263, 6-(1-(1-(4-((1R,3R)-2-(2,2-difluoroethyl)-3-methyl-2,3,4,9-tetrahydro-1H-pyrido[3,4-b]indol-1-yl)phenyl)piperidine-4-carbonyl)piperidin-4-yl)-2-(2,6-dioxopiperidin-3-yl)-6,7-dihydropyrrolo[3,4-f]isoindole-1,3(2H,5H)-dione] | 10 to 100 |
| C[C@@H]1Cc2c([nH]c3ccccc23)[C@@H](c2ccc(N3CCC(CN4CCC(N5Cc6cc7c(cc6C5)C(=O)N(C5CCC(=O)NC5=O)C7=O)CC4)CC3)cc2)N1CC(F)F (stereo partly drawn) [E 264, 6-(1-((1-(4-((1R,3R)-2-(2,2-difluoroethyl)-3-methyl-2,3,4,9-tetrahydro-1H-pyrido[3,4-b]indol-1-yl)phenyl)piperidin-4-yl)methyl)piperidin-4-yl)-2-(2,6-dioxopiperidin-3-yl)-6,7-dihydropyrrolo[3,4-f]isoindole-1,3(2H,5H)-dione] | 10 to 100 |
| C[C@@H]1Cc2c([nH]c3ccccc23)[C@@H](c2ccc(N3CCC4(CCN(C(=O)CN5Cc6cc7c(cc6C5)C(=O)N(C5CCC(=O)NC5=O)C7=O)CC4)CC3)cc2)N1CC(F)F (stereo partly drawn) [E 265, 6-(2-(9-(4-((1R,3R)-2-(2,2-difluoroethyl)-3-methyl-2,3,4,9-tetrahydro-1H-pyrido[3,4-b]indol-1-yl)phenyl)-3,9-diazaspiro[5.5]undecan-3-yl)-2-oxoethyl)-2-(2,6-dioxopiperidin-3-yl)-6,7-dihydropyrrolo[3,4-f]isoindole-1,3(2H,5H)-dione] | 10 to 100 |
| C[C@@H]1Cc2cc(O)ccc2[C@@H](c2c(F)cc(N3CCC(C(=O)N4CCC(N5Cc6cc7c(cc6C5)C(=O)N(C5CCC(=O)NC5=O)C7=O)CC4)CC3)cc2F)N1CC(F)F (stereo partly drawn) [E 269, 6-(1-(1-(4-((1S,3R)-2-(2,2-difluoroethyl)-6-hydroxy-3-methyl-1,2,3,4-tetrahydroisoquinolin-1-yl)-3,5-difluorophenyl)piperidine-4-carbonyl)piperidin-4-yl)-2-(2,6-dioxopiperidin-3-yl)-6,7-dihydropyrrolo[3,4-f]isoindole-1,3(2H,5H)-dione] | > 100 |
| C[C@@H]1Cc2cc(O)ccc2[C@@H](c2c(F)cc(N3CCC(CN4CCC(N5Cc6cc7c(cc6C5)C(=O)N(C5CCC(=O)NC5=O)C7=O)CC4)CC3)cc2F)N1CC(F)F (stereo partly drawn) [E 270, 6-(1-((1-(4-((1S,3R)-2-(2,2-difluoroethyl)-6-hydroxy-3-methyl-1,2,3,4-tetrahydroisoquinolin-1-yl)-3,5-difluorophenyl)piperidin-4-yl)methyl)piperidin-4-yl)-2-(2,6-dioxopiperidin-3-yl)-6,7-dihydropyrrolo[3,4-f]isoindole-1,3(2H,5H)-dione] | > 100 |
| O=C1CCC(N2C(=O)c3cc4c(cc3C2=O)CN(C2CCN(CC3CCN(c5ccc([C@@H]6c7ccc(O)cc7CC[C@@H]6c6ccccc6)cc5)CC3)CC2)C4)C(=O)N1 (stereo partly drawn) [E 271, 2-(2,6-dioxopiperidin-3-yl)-6-(1-((1-(4-((1R,2S)-6-hydroxy-2-phenyl-1,2,3,4-tetrahydronaphthalen-1-yl)phenyl)piperidin-4-yl)methyl)piperidin-4-yl)-6,7-dihydropyrrolo[3,4-f]isoindole-1,3(2H,5H)-dione] | < 10 |
| O=C1CCC(N2C(=O)c3cc4c(cc3C2=O)CN(C2CN(CC3CCN(c5ccc([C@@H]6c7ccc(O)cc7CC[C@@H]6c6ccccc6)cc5)CC3)C2)C4)C(=O)N1 (stereo partly drawn) [E 272, 2-(2,6-dioxopiperidin-3-yl)-6-(1-((1-(4-((1R,2S)-6-hydroxy-2-phenyl-1,2,3,4-tetrahydronaphthalen-1-yl)phenyl)piperidin-4-yl)methyl)azetidin-3-yl)-6,7-dihydropyrrolo[3,4-f]isoindole-1,3(2H,5H)-dione] | > 100 |
| O=C1CCC(N2C(=O)c3cc4c(cc3C2=O)CN(C2CCN(CC3CCN(c5ccc([C@@H]6c7ccc(O)cc7CC[C@@H]6c6ccc(F)cc6)cc5)CC3)CC2)C4)C(=O)N1 (stereo partly drawn) [E 273, 2-(2,6-dioxopiperidin-3-yl)-6-(1-((1-(4-((1R,2S)-2-(4-fluorophenyl)-6-hydroxy-1,2,3,4-tetrahydronaphthalen-1-yl)phenyl)piperidin-4-yl)methyl)piperidin-4-yl)-6,7-dihydropyrrolo[3,4-f]isoindole-1,3(2H,5H)-dione] | 10 to 100 |
